Test results published in US20250195542A1, “METABOLIC DISEASE THERAPEUTIC AGENT OR PREVENTIVE AGENT” (Peking University, priority 2022, published 2025).
Changes are numbered by the printed parent chain.

Columns and labels:
RDH10 protein = target: T1, RDH10 protein (Homo sapiens, UniProt Q8IZV5); assay: Surface plasmon resonance (SPR), Biacore T200; format: binding; conditions: RDH10 immobilized on CM5 chip; 25S-Antcin C 0.78-25 μM; FIG. 15B
T1 sequence (Q8IZV5 1-341): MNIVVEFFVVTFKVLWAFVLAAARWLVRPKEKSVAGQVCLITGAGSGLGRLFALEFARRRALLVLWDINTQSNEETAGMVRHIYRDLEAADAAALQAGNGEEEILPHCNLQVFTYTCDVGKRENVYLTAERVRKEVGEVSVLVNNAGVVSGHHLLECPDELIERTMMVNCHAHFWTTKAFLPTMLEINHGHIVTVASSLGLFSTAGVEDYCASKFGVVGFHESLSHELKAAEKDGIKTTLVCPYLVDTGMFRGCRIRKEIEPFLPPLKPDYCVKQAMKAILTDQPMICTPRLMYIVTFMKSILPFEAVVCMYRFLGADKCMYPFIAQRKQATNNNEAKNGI
Description: Using a Biacore T200 plasmon surface resonance instrument, RDH10 protein was immobilized on a CM5 sensor chip via an amine coupling reaction. The pH of the RDH10 protein was 4.5, and the final immobilization concentration was 50 μg/mL. The running buffer consisted of 50 mM Tris-Hcl buffer containing […] NaCl, 2 mM MgCl2, 0.05% Tween-20, and 5% DMSO. In the binding experiment, different concentrations of 25S-Antcin C (25, 12.5, 6.25, 3.12, 1.56, 0.78 μM) were dissolved in the running buffer. The flow rate was 30 μL/min, with a contact time of 60 seconds and a dissociation time of 60 seconds. Data were analyzed using Biacore software, and the kinetic analysis calculated the affinity constant (KD value).

L02 human liver cells = assay: Oleic acid-palmitic acid induced lipid deposition with RDH10 siRNA knockdown, L02 cells (Oil Red O); format: cell-based; conditions: 20 μM
NASH in MCD model mice [1] = assay: Serum ALT and AST in MCD mice, Example 12; format: in vivo, C57BL/6J mice; conditions: oral 4 weeks, 10 and 20 mg/kg, better than obeticholic acid 10 mg/kg, FIG. 17B
Description: (§1) Four-week-old male C57BL/6J mice were purchased from the Experimental Animal Center, Peking University Health Science Center. The mice were randomly divided into groups, with 10 mice per group. Methionine choline-deficient diet (MCD) was used to induce NASH, forming the MCD model mice. The model mice were treated with an oral administration of drugs for 4 weeks. After the final treatment, the mice were fasted overnight, and then sacrificed. Serum and liver tissue samples were stored at −80° C., which could be compared with untreated MCD mice (“MCD”) and normal mice (“Nor” or “Normal”). The dosing amounts for each group were as follows: low-dose 25S-Antcin C (“ACS-L”): 10 mg/kg; high-dose 25S-Antcin C (“ACS-H”): 20 mg/kg; obeticholic acid (“OCA”): 10 mg/kg.
After the final treatment and overnight fasting, mice were anesthetized, and blood was collected from the tail vein. Whole blood was allowed to stand for 2 hours, centrifuged at 6000 rpm for 10 minutes, and the supernatant was used to measure serum alanine aminotransferase (ALT) and aspartate aminotransferase (AST) levels using ALT assay kit and AST assay kit (Bote Biotech, Beijing).

NASH in MCD model mice [2] = assay: H&E liver histology in MCD mice, Example 12; format: in vivo, C57BL/6J mice; conditions: oral 4 weeks, 10 and 20 mg/kg, better than obeticholic acid 10 mg/kg, FIG. 17A
Description: as §1
After the final treatment, the mice were sacrificed, and the liver tissue samples were fixed overnight in 4% paraformaldehyde, embedded in paraffin, and sectioned. […]

RDH10 [3] = target: T2, RDH10 (Mus musculus, UniProt Q8VCH7); assay: Protein fishing (pull-down) with molecular probe and proteomics analysis; format: binding, C57BL/6J mice; conditions: 400 μM ACS against 40 μM ACS-biotin
T2 construct: Take approximately 50 mg of liver tissue from C57BL/6J mice and add 1 mL of RIPA lysis buffer; from tissue; host or cells: mouse liver (C57BL/6J) lysate
T2 sequence (Q8VCH7 1-341): T1 sequence (Q8IZV5 1-341) with N99K, H107P, K278R, I287V
Description: • 1. Preparation of Liver Protein: Take approximately 50 mg of liver tissue from C57BL/6J mice and add 1 mL of RIPA lysis buffer. Lyse the proteins on ice, then centrifuge at 12,000 rpm for 30 minutes at 4° C. Collect the supernatant, measure the protein concentration using BCA method, and dilute to 1 mg/mL with PBS. • 2. Sample Preparation: Prepare new 1.5 mL EP tubes and divide them into control group, drug group, and competitive inhibition group. Add 100 μL of PBS solution containing 40 μM Biotin to the control group, 100 μL of PBS solution containing 40 μM ACS-biotin (prepared in Example 1) to the drug group, and 100 μL of PBS solution containing 40 μM ACS-biotin and 400 μM ACS to the competitive inhibition group. Then, add 100 μL of liver protein lysate (1 mg/mL) to each tube and incubate on a shaking incubator at 4° C. for 2 hours. • 3. Washing Streptavidin Beads: Add 100 μL of streptavidin beads to new 1.5 mL EP tubes and centrifuge at 2,700 rpm for 1 minute. Discard the supernatant and wash the beads with 100 μL of PBS three times. • 4. Binding and Washing: Add the solutions from step 2 to the washed streptavidin beads. Incubate on a shaking incubator at 4° C. for 2 hours, then centrifuge at 2,700 rpm for 1 minute. Discard the supernatant and wash the beads with 100 μL of PBS three times. • 5. Protein Elution: Add 50 μL of PBS to the beads, mix well, and then add 5×SDS-PAGE sample buffer. Boil for 5 minutes and centrifuge at 13,000 rpm for 5 minutes. Store the supernatant at −20° C. for SDS-PAGE gel electrophoresis. • 6. Protein Detection: Stain with Coomassie Brilliant Blue and cut the gel for proteomics analysis.

RDH10 [4] = target: T2, RDH10; assay: Cellular thermal shift assay (CETSA / ITDRFCETSA); format: binding
Description: • 1. Mouse liver total protein (500 μg/mL) was incubated at room temperature for 2 hours with either 25S-Antcin C (100 μM) or an equal volume of DMSO. • 2. After incubation, the 25S-Antcin C-treated group and the DMSO control group were aliquoted into 13 PCR tubes, with 30 μL per tube, and placed on ice. • 3. In a PCR machine, a gradient heating program for CETSA was set up with 12 temperature points (37, 41, 45, 49, 53, 57, 61, 65, 69, 73, 77, 81° C.). The 13 samples from the 25S-Antcin C-treated group and the DMSO control group were heated at each temperature point for 3 minutes, then immediately taken out and incubated at room temperature for 3 minutes, followed by rapid cooling on ice. • 4. The samples were transferred to 1.5 mL EP tubes and centrifuged at 15,000 rpm for 40 minutes at 4° C. • 5. The supernatant was transferred to new EP tubes, mixed with 5×SDS-PAGE loading buffer, and boiled for 5 minutes to denature the proteins. Western Blot was then performed.

[5] = system: mouse primary liver cells; assay: Oleic acid-palmitic acid induced lipid deposition with RDH10 siRNA knockdown, mouse primary liver cells (Oil Red O); format: cell-based; conditions: 20 μM
[6] = cited from earlier work
[7] = oleic acid-palmitic acid, 24 hours, FIG. 16B

In the case of `C=C(CC[C@@H](C)[C@H]1CC[C@H]2C3=C(C(=O)C[C@]12C)[C@@]1(C)CCC(=O)[C@@H](C)[C@@H]1C[C@@H]3O)[C@H](C)C(=O)O` [25S-Antcin C], the Kd (RDH10 protein) is reported as 8.31 µM, the “effect on reducing lipid deposition in the RDH10 siRNA group” value (L02 human liver cells; RDH10 knockdown) is reported as “almost completely lost” and the “lipid droplets, Control siRNA group” value (L02 human liver cells; [7]) is reported as “significantly reduced in size”. For the same molecule, the “serum ALT levels” value (NASH in MCD model mice [1]) was “significantly reduced”, the “serum AST levels” value (NASH in MCD model mice [1]) was “significantly reduced” and the “liver steatosis and ballooning” value (NASH in MCD model mice [2]) was “significantly reduced”. For the same molecule, the “competitive inhibition of probe binding to RDH10 protein” value (RDH10 [3]) was “reduces the binding of the molecular probe to the RDH10 protein”, the “RDH10 protein that did not precipitate” value (RDH10 [4]; 100 μM, among 53-69 °C) was “significant increase” and the “stability of RDH10 protein at 61° C. (ITDRFCETSA)” value (RDH10 [4]; constant 61 °C, 0.01-1000 μM, FIG. 15D) was “increased with higher concentrations of 25S-Antcin C, stabilizing after 100 μM”. The “CETSA curve of RDH10” value (RDH10 [4]; mouse liver total protein, 100 μM, 37-81 °C, compared to DMSO group, FIG. 15C) was “shift in the CETSA curve”, the “effect on reducing lipid deposition in the RDH10 siRNA group” value ([5]; RDH10 knockdown) was “almost completely lost” and the “lipid droplets, Control siRNA group” value [5, 7] was “significantly reduced in size”.
For `CC[C@H]1[C@@H](O)[C@@H]2[C@H](CC[C@]3(C)[C@@H]([C@H](C)CCC(=O)O)CC[C@@H]23)[C@@]2(C)CC[C@@H](O)C[C@@H]12` [obeticholic acid], the “serious side effects in clinical trials” value [6] is given as “severe pruritus”.
